Data reported in ChEMBL document CHEMBL1130232, “Synthesis and biological evaluation of 4-(hydroxyalkyl)estradiols and related compounds” (J Med Chem, 1997).

Experiments:
Conditions in all cases: mcf7
[1] = molecular target: T1, Estrogen receptor (Homo sapiens, UniProt Q92731+P03372); assay: Affinity for estrogen receptor of human MCF-7 cells; format: cell-based
[2] = molecular target: T1, Estrogen receptor; assay: Induction of pS2 Gene expression in human MCF-7 cells; format: functional, cell-based
[3] = molecular target: T1, Estrogen receptor; assay: Affinity for estrogen receptor of human MCF-7 cells at 10e-5 M; format: cell-based

C[C@]12CC[C@@H]3c4ccc(O)c(O)c4CC[C@H]3[C@@H]1CC[C@@H]2O
EC50 [1]: 506 nM | EC50 [2]: 65.4 nM

C[C@]12CC[C@@H]3c4ccc(O)c(CCN)c4CC[C@H]3[C@@H]1CC[C@@H]2O
EC50 [3]: 2500 nM

C[C@]12CC[C@@H]3c4ccc(O)c(CCO)c4CC[C@H]3[C@@H]1CC[C@@H]2O
EC50 [1]: 620 nM | EC50 [2]: 148 nM

C[C@]12CC[C@@H]3c4ccc(O)c(CO)c4CC[C@H]3[C@@H]1CC[C@@H]2O
EC50 [1]: 364 nM | EC50 [2]: 11.7 nM

C[C@]12CC[C@@H]3c4ccc(O)c(CCCO)c4CC[C@H]3[C@@H]1CC[C@@H]2O
EC50 [1]: 3320 nM | EC50 [2]: 2950 nM
